Data set [1] concerns Huh7.5 cells. Nature of the data set: Cytotoxicity assay (MTT) in Huh7.5 cells. Type of data set: cell-based, human. On the procedure:
(§1) All the target compounds were evaluated for their anti-HCV activities (EC50) and cytotoxicities (CC50) in human Huh7.5 cells using specific real-time RT-PCR assay, as described earlier. As an important indicator, the selectivity index (SI) was calculated as a ratio of CC50 to EC50. Anti-HCV ability of a given compound was estimated by combining its EC50 with SI values.
(§2) Human liver cell line Huh7.5 cells (kindly provided by Vertex Pharmaceuticals, Inc., Boston, MA) were cultured in Dulbecco’s modified eagle medium (DMEM) supplemented with 10% inactivated fetal bovine serum and 1% penicillin–streptomycin (invitrogen). Cells were digested with 0.05% trypsin-ethylene diamine tetraacetic acid (EDTA) and split twice a week.
(§3) Huh7.5 cells were seeded into 96-well plates (Costar) at a density of 3 × 10^4 cells cm^−2. After 24 h incubation, fresh culture medium containing test compounds at various concentrations were added. 72 h later, cytotoxicity was evaluated with 3-(4,5-dimethylthiazol-2-yl)-2,5-diphenyltetrazolium bromide (MTT).

For data set [2], the system named is HCV. As to the kind of experiment: Anti-HCV effect in vitro, intracellular HCV RNA by real-time RT-PCR in infected Huh7.5 cells. The data set is classed as cell-based, hepatitis C virus. The settings on record: for EC50: read-out: EC50 (concentration required to inhibit HCV growth by 50%); for SI (ratio of CC50 to EC50): Huh7.5 cells. On the procedure:
as §1, §2
Huh7.5 cells were seeded into 96-well or 6-well plates (Costar) at a density of 3 × 10^4 cells cm^−2. After 24 h incubation, the cells were infected with HCV viral stock (45 IU cell^−1) and simultaneously treated with the test compounds at various concentrations or solvent as control. The culture medium was removed after 72 h inoculation, the intracellular total RNA (in 96-well plates) was extracted with RNeasy Mini Kit (Qiagen), and total intracellular proteins (in 6-well plates) were extracted with Cyto-Buster Protein Extraction Reagent added with 1 mM protease inhibitor cocktail. The intracellular HCV RNA was quantified with a real time one-step reverse-transcription polymerase chain reaction (RT-PCR).

A short description of data set [3]: Cytotoxicity assay (MTT) in Huh7.5 cells. The settings on record: human. Type of data set: cell-based, human. The protocol:
as §1, §2, §3

The mark [4] stands for this setting: HCV-infected Huh7.5 cells, 72 h, real-time RT-PCR.
Setting [5] is: Huh7.5 cells, 72 h, MTT, read-out: CC50 (cytotoxic concentration required to inhibit Huh7.5 cell growth by 50%).
The mark [6] stands for this setting: Hepatitis C virus, Huh7.5, 72 h.

Where a name gives a salt, the structure may show the parent alone. Read-outs that look alike come from different tables or passages of the source.

`OCCCC[C@@H]1[C@H]2CCCN3CCC[C@@H](CN1Cc1ccc(F)cc1)[C@@H]23` [3a] showed a CC50 in data set [1] of 285 ± 7.45 µM. Moreover, the EC50 in data set [2] (setting [4]) is 2.99 ± 1.51 µM. In addition, the “SI (ratio of CC50 to EC50)” value in data set [2] worked out at 95.3.
In the case of `CCCN1C[C@@H]2CCCN3CCC[C@@H]([C@H]23)[C@H]1CCCCO` [3b], the CC50 in data set [1] was above 500 µM. For the same compound, the EC50 in data set [2] (setting [4]) is 16.4 ± 10.9 µM. Also, in data set [2], the “SI (ratio of CC50 to EC50)” value is listed as above 30.5.
In data set [1], `CCCCCCCN1C[C@@H]2CCCN3CCC[C@@H]([C@H]23)[C@H]1CCCCO` [3c] came in with a CC50 of 33.3 ± 6.49 µM. Moreover, the EC50 in data set [2] (setting [4]) was 1.01 ± 0.55 µM. The “SI (ratio of CC50 to EC50)” value in data set [2] turned out to be 32.9.
In turn, `CCCCCCCCN1C[C@@H]2CCCN3CCC[C@@H]([C@H]23)[C@H]1CCCCO` [3d] displayed a CC50 in data set [1] of 17.8 ± 2.44 µM. Also, the EC50 in data set [2] (setting [4]) came to 0.8 ± 0.26 µM. Further, the “SI (ratio of CC50 to EC50)” value in data set [2] came out at 22.3.
The like results for `COC(=O)CCC[C@@H]1[C@H]2CCCN3CCC[C@@H](CN1Cc1ccc(OC)cc1)[C@@H]23.Cl.Cl` [6a, Methyl 12N-(4-methoxybenzyl)matrinate dihydrochloride] were, in that order, 414 ± 7.34 µM, 7.01 ± 1.51 µM and 59.1.
For the compound `COC(=O)CCC[C@@H]1[C@H]2CCCN3CCC[C@@H](CN1Cc1ccc(C)cc1)[C@@H]23` [6b, Methyl 12N-(4-methylbenzyl)matrinate], the CC50 in data set [1] (setting [5]) turned out to be 133 ± 7.53 µM. The EC50 in data set [2] (setting [4]) was 1.73 ± 1.36 µM. Further, the “SI (ratio of CC50 to EC50)” value in data set [2] was found to be 76.8.
The like results for `C=Cc1ccc(CN2C[C@@H]3CCCN4CCC[C@@H]([C@H]34)[C@H]2CCCC(=O)OC)cc1` [6c, Methyl 12N-(4-vinylbenzyl)matrinate] were, in that order, 81.2 ± 12.9 µM, 1.61 ± 0.76 µM and 50.4.
The like results for `COC(=O)CCC[C@@H]1[C@H]2CCCN3CCC[C@@H](CN1Cc1ccc(F)cc1F)[C@@H]23` [6d, Methyl 12N-(2,4-difluorobenzyl)matrinate] were, in that order, 261 ± 28.7 µM, 1.69 ± 1.47 µM and 154.
In turn, `COC(=O)CCCC1C2CCCN3CCCC(CN1Cc1ccc([N+](=O)[O-])cc1)C23.Cl.Cl` (stereo not shown) [6e, Methyl 12N-(4-nitrobenzyl)matrinate dihydrochloride] came in with a CC50 in data set [1] of 235 ± 48.2 µM. The EC50 in data set [2] (setting [4]) was 14.2 ± 3.13 µM. Moreover, the “SI (ratio of CC50 to EC50)” value in data set [2] is reported as 16.5.
`COC(=O)CCC[C@@H]1[C@H]2CCCN3CCC[C@@H](CN1Cc1ccncc1)[C@@H]23` [6f, Methyl 12N-(pyridin-4-ylmethyl)matrinate]: in data set [1], the CC50 was above 500 µM. In data set [2] (setting [4]), the EC50 was 4.66 ± 0.35 µM. Also, in data set [2], the “SI (ratio of CC50 to EC50)” value is above 107.
The like results for `Cl.Cl.OCCCCC1C2CCCN3CCCC(CN1Cc1ccc(Cl)cn1)C23` (stereo not shown) [7 g, 12N-(5-Chloropyridin-2-ylmethyl)matrinol dihydrochloride] were, in that order, above 500 µM, 10.9 ± 5.59 µM and above 45.9.
In turn, `O=C(CN1C[C@@H]2CCCN3CCC[C@@H]([C@H]23)[C@H]1CCCCO)Nc1ccccc1` [7 h, 12N-(2-Oxo-2-(phenylamino)ethyl)matrinol] gave a CC50 in data set [1] above 500 µM. The EC50 in data set [2] (setting [4]) was 46.7 ± 41 µM. Moreover, the “SI (ratio of CC50 to EC50)” value in data set [2] was above 10.7.
In the same order, the values of `C=Cc1ccc(CN2C[C@@H]3CCCN4CCC[C@@H]([C@H]34)[C@H]2CCCCO)cc1.Cl.Cl` [7c, 12N-(4-Vinylbenzyl)matrinol dihydrochloride] are 143 ± 32.3 µM, 3.16 ± 0.51 µM and 45.3.
Take `OCCCCC1C2CCCN3CCCC(CN1Cc1ccc(F)cc1F)C23` (stereo not shown) [7d, 12N-(2,4-Difluorobenzyl)matrinol dihydrochloride]: the CC50 in data set [1] (setting [5]) came to 266 ± 9.47 µM. Further, the EC50 in data set [2] (setting [4]) was below 2.06 µM.
Take `Cl.Cl.OCCCC[C@@H]1[C@H]2CCCN3CCC[C@@H](CN1Cc1ccncc1)[C@@H]23` [7e, 12N-(Pyridin-4-ylmethyl)matrinol dihydrochloride]: the CC50 in data set [1] was above 500 µM. For the same compound, in data set [2] (setting [4]), the EC50 stood at 9.03 ± 5.58 µM. Besides, the “SI (ratio of CC50 to EC50)” value in data set [2] is on record as above 55.4.
The like results for `OCCCCC1C2CCCN3CCCC(CN1Cc1cccnc1)C23` (stereo not shown) [7f, 12N-(Pyridin-3-ylmethyl)matrinol] were, in that order, above 500 µM, 4.39 ± 3.01 µM and above 114.
In the same order, the values of `Cl.Cl.O=C(CN1CC2CCCN3CCCC(C1CCCCO)C23)Nc1ccc(C(F)(F)F)cc1` (stereo not shown) [7i, 12N-(2-Oxo-2-((4-(trifluoromethyl)phenyl)amino)ethyl)matrinol dihydrochloride] are 86.2 ± 4.33 µM, 4.19 ± 1.44 µM and 20.6.
In the same order, the values of `COc1ccc(CN2C[C@@H]3CCCN4CCC[C@@H]([C@H]34)[C@H]2CCCC(C)(C)O)cc1.Cl.Cl` [10a, 1′,1′-Dimethyl-12N-(4-methoxybenzyl)matrinol dihydrochloride] are above 140 µM, 11.7 ± 0.06 µM and 12.0.
As to `Cc1ccc(CN2CC3CCCN4CCCC(C2CCCC(C)(C)O)C34)cc1.Cl.Cl` (stereo not shown) [10b, 1′,1′-Dimethyl-12N-(4-methylbenzyl)matrinol dihydrochloride], in data set [1], the CC50 turned out to be 55.7 ± 7.5 µM. Besides, the EC50 in data set [2] (setting [4]) stood at 0.82 ± 0.26 µM. The “SI (ratio of CC50 to EC50)” value in data set [2] was 67.9.
Turning to `CCC(O)(CC)CCC[C@@H]1[C@H]2CCCN3CCC[C@@H](CN1Cc1ccc(C)cc1)[C@@H]23.Cl.Cl` [10c, 1′,1′-Diethyl-12N-(4-methylbenzyl)matrinol dihydrochloride], the CC50 in data set [1] worked out at 12.3 ± 4.23 µM. Further, in data set [2] (setting [4]), the EC50 was below 0.23 µM. Further, in data set [2], the “SI (ratio of CC50 to EC50)” value is given as above 53.5.
In the same order, the values of `CC(C)(O)CCCC1C2CCCN3CCCC(CN1Cc1ccc(F)cc1F)C23.Cl.Cl` (stereo not shown) [10d, 1′,1′-Dimethyl-12N-(2,4-difluorobenzyl)matrinol dihydrochloride] are 156 ± 37.9 µM, 6.55 ± 2.69 µM and 23.8.
In turn, `CC(C)(O)CCC[C@@H]1[C@H]2CCCN3CCC[C@@H](CN1Cc1ccncc1)[C@@H]23` [10e, 1′,1′-Dimethyl-12N-(4-pyridylmethyl)matrinol] had a CC50 in data set [1] above 500 µM. Also, the EC50 in data set [2] (setting [4]) is 80.4 µM.
In data set [1], `COC(=O)C/C=C\C1C2CCCN3CCCC(CN1Cc1ccc(OC)cc1)C23` (stereo not drawn) [13a, (Z)-Methyl 12N-(4-methoxybenzyl)-Δ^βγ-matrinic crotonate] gave a CC50 of 326 ± 21 µM. The EC50 in data set [2] (setting [4]) turned out to be 16.7 ± 4.71 µM. The “SI (ratio of CC50 to EC50)” value in data set [2] was 19.5.
In the same order, the values of `COC(=O)C/C=C\[C@@H]1[C@H]2CCCN3CCC[C@@H](CN1Cc1ccc(F)cc1)[C@@H]23.Cl.Cl` [13b, (Z)-Methyl 12N-(4-fluorobenzyl)-Δ^βγ-matrinic crotonate dihydrochloride] are 260 ± 84.8 µM, 18.1 ± 6.49 µM and 14.4.
For the compound `COC(=O)C/C=C\[C@@H]1[C@H]2CCCN3CCC[C@@H](CN1Cc1cccc([N+](=O)[O-])c1)[C@@H]23.Cl.Cl` [13c, (Z)-Methyl 12N-(3-nitrobenzyl)-Δ^βγ-matrinic crotonate dihydrochloride], the CC50 in data set [1] (setting [5]) turned out to be 402 ± 83.6 µM. In addition, the EC50 in data set [2] (setting [4]) turned out to be 40.4 ± 3.64 µM. Further, in data set [2], the “SI (ratio of CC50 to EC50)” value was found to be 10.0.
In turn, `COc1ccc(CN2CC3CCCN4CCCC(C2/C=C\CCO)C34)cc1.Cl.Cl` (stereo not drawn) [14a, (Z)-12N-(4-Methoxybenzyl)-Δ^βγ-matrinic crotonol dihydrochloride] returned a CC50 in data set [1] of 214 ± 95 µM. Further, the EC50 in data set [2] (setting [4]) amounted to 8.8 ± 2.15 µM. In addition, the “SI (ratio of CC50 to EC50)” value in data set [2] is on record as 24.3.
In data set [1], `Cl.Cl.OCC/C=C\C1C2CCCN3CCCC(CN1Cc1ccc(F)cc1)C23` (stereo not drawn) [14b, (Z)-12N-4-(Fluorobenzyl)-Δ^βγ-matrinic crotonol dihydrochloride] registered a CC50 of 156 ± 65.8 µM. Besides, in data set [2] (setting [4]), the EC50 amounted to 13.6 ± 2.63 µM. Also, the “SI (ratio of CC50 to EC50)” value in data set [2] amounted to 11.5.
For `CCC[C@H](NC(=O)[C@@H]1[C@H]2CCC[C@H]2CN1C(=O)[C@@H](NC(=O)[C@@H](NC(=O)c1cnccn1)C1CCCCC1)C(C)(C)C)C(=O)C(=O)NC1CC1` [Tela, telaprevir, reference compound], the CC50 at 72 h in data set [3] turned out to be 47.6 ± 0.61 µM. The EC50 in data set [2] (setting [6]) came to 0.02 ± 0.02 µM. For the same compound, the “SI (ratio of CC50 to EC50)” value in data set [2] is on record as 1950.
For `COC(=O)CCC[C@@H]1[C@H]2CCCN3CCC[C@@H](CN1Cc1ccc(F)cc1)[C@@H]23` [compound 2], the CC50 in data set [1] (setting [5]) was 274 ± 8.35 µM. Further, the EC50 in data set [2] (setting [4]) is 2.09 ± 1.65 µM. Further, the “SI (ratio of CC50 to EC50)” value in data set [2] is reported as 131.
`O=[N+]([O-])c1cccc(CN2C[C@@H]3CCCN4CCC[C@@H]([C@H]34)[C@H]2/C=C\CCO)c1` [compound 20, (Z)-12N-(3-nitrobenzyl)-Δ^βγ-matrinic crotonol dihydrochloride]: the CC50 at 72 h in data set [3] (setting [5]) turned out to be 312 ± 31.1 µM. In addition, the EC50 in data set [2] (setting [6]) worked out at 18.4 ± 1.64 µM. Besides, in data set [2], the “SI (ratio of CC50 to EC50)” value is given as 17.0.

Source of the values: paper PMC5622025, “Synthesis and biological evaluation of tricyclic matrinic derivatives as a class of novel anti-HCV agents” (Chemistry Central Journal, 2017).
